Structures can show the parent of a compound that is named as a salt. Where two headings read alike, the source gives them in different places.
Key:
[1] = tested on: fibrin-induced microglia activation; test: Image-based assay of fibrin-induced microglia activation (HTS and dose response); assay type: cell-based, rat; details: for inhibition at 10 µM: Rattus norvegicus, Microglia, read-out: Fibrin % inhibition
[2] = tested on: LPS-induced microglia activation; test: Image-based assay of LPS-induced microglia activation (HTS and dose response); assay type: cell-based, rat; details: for inhibition at 10 µM: Rattus norvegicus, Microglia, read-out: LPS % inhibition
[3] = tested on: fibrin- and LPS-induced microglia activation; test: cells; assay type: cell-based, rat
primary rat microglia [4] = test: Cell toxicity (dead cells, size <150 μm2) in LPS assay
primary rat microglia [5] = test: Cell toxicity (dead cells, size <150 μm2) in coated fibrin (cFib) assay;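 further: share of dead cells sized under 150 µm2 at 10 µM in fibrin-stimulated microglia HTS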
[6] = primary microglia HTS, fibrin stimulation, activation = cell size >800 μm2
[7] = 48 h, primary microglia HTS, LPS stimulation, activation = cell size >800 μm2
[8] = quadrant by fibrin and LPS inhibition in HTS of 1907 compounds
[9] = primary microglia HTS, LPS stimulation, toxicity = cell size <150 μm2
[10] = primary microglia HTS, fibrin stimulation, toxicity = cell size <150 μm2
[11] = primary HTS, 10 μM, fibrin-stimulated primary microglia
[12] = primary HTS, 10 μM, LPS-stimulated primary microglia
[13] = primary HTS, 10 μM, LPS assay, dead cells size <150 μm2
[14] = primary HTS, 10 μM, fibrin assay, dead cells size <150 μm2
[15] = primary microglia HTS, fibrin stimulation, increased cell size (>800 μm^2) as marker of activation
[16] = 48 h, primary microglia HTS, LPS stimulation, increased cell size (>800 μm^2) as marker of activation
[17] = primary microglia HTS, LPS stimulation, decreased size (<150 μm^2) as marker of toxicity
[18] = primary microglia HTS, fibrin stimulation, decreased size (<150 μm^2) as marker of toxicity
[19] = primary microglia HTS, 10 μM, fibrin-stimulated, cell size >800 μm^2 as marker of activation
[20] = primary microglia HTS, 10 μM, LPS-stimulated, cell size >800 μm^2 as marker of activation
[21] = HTS of 1907 compounds, quadrant by fibrin and LPS inhibition
[22] = primary microglia HTS, 10 μM, LPS assay, cell size <150 μm^2 as marker of toxicity
[23] = primary microglia HTS, 10 μM, fibrin assay, cell size <150 μm^2 as marker of toxicity

Compound: CC(N)Cc1ccc(O)cc1 (centres unmarked) [Hydroxyamphetamine]
- inhibition at 10 µM [1, 6]: -12%
- inhibition at 10 µM [2, 7]: -2%
- Quadrant (FIG. 5b) [3, 8]: Q4
- LPS % cell toxicity (primary rat microglia [4]; [9]): 0%
- Fibrin % cell toxicity (primary rat microglia [5]; [10]): 1%

Compound: CN(C)CCCOc1nn(Cc2ccccc2)c2ccccc12 [Benzydamine]
- inhibition at 10 µM [1, 11]: -16%
- inhibition at 10 µM [2, 12]: 30%
- Quadrant (FIG. 5b) ([3]; primary HTS, 10 μM): Q4
- LPS % cell toxicity (primary rat microglia [4]; [13]): 1%
- Fibrin % cell toxicity (primary rat microglia [5]; [14]): 1%

Compound: Cc1cc2c(OCC(CNC(C)(C)C)OC(=O)c3ccccc3)cccc2[nH]1 (centres unmarked) [Bopindolol]
- inhibition at 10 µM [1, 15]: 105%
- inhibition at 10 µM [2, 16]: 81%
- Quadrant (FIG. 5b) [3, 8]: Q2
- LPS % cell toxicity (primary rat microglia [4]; [17]): 2%
- Fibrin % cell toxicity (primary rat microglia [5]; [18]): 6%

Compound: C#C[C@]1(OC(C)=O)CC[C@H]2[C@@H]3CCC4=CC(=NO)CC[C@@H]4[C@H]3CC[C@@]21CC (mixture of isomers) [Norgestimate]
- inhibition at 10 µM [1, 15]: -5%
- inhibition at 10 µM [2, 16]: 12%
- Quadrant (FIG. 5b) [3, 8]: Q4
- LPS % cell toxicity (primary rat microglia [4]; [17]): 0%
- Fibrin % cell toxicity (primary rat microglia [5]; [18]): 0%

Compound: CNC(=O)c1c(I)c(NC(C)=O)c(I)c(C(=O)O)c1I [Iothalamic Acid]
- inhibition at 10 µM [1, 6]: 5%
- inhibition at 10 µM [2, 7]: 7%
- Quadrant (FIG. 5b) [3, 8]: Q4
- LPS % cell toxicity (primary rat microglia [4]; [9]): 0%
- Fibrin % cell toxicity (primary rat microglia [5]; [10]): 1%

Compound: CC1=C(CC(=O)O)c2cc(F)ccc2/C1=C\c1ccc(S(C)(=O)=O)cc1 [Sulindac Sulfone]
- Fibrin % inhibition [1, 19]: −27%
- LPS % inhibition [2, 20]: 3%
- Quadrant (FIG. 5b) [3, 21]: Q4
- LPS % cell toxicity (primary rat microglia [4]; [22]): 0%
- Fibrin % cell toxicity (primary rat microglia [5]; [23]): 1%

Compound: CN1CCN(C2=Nc3ccccc3Oc3ccc(Cl)cc32)CC1 [Loxapine]
- inhibition at 10 µM [1, 15]: -41%
- inhibition at 10 µM [2, 16]: 9%
- Quadrant (FIG. 5b) [3, 8]: Q4
- LPS % cell toxicity (primary rat microglia [4]; [17]): 0%
- Fibrin % cell toxicity (primary rat microglia [5]; [18]): 0%

Compound: CC(=O)Oc1cccc(C)c1 [Meta-cresyl Acetate]
- inhibition at 10 µM [1, 15]: -7%
- inhibition at 10 µM [2, 16]: -3%
- Quadrant (FIG. 5b) [3, 8]: Q4
- LPS % cell toxicity (primary rat microglia [4]; [17]): 0%
- Fibrin % cell toxicity (primary rat microglia [5]; [18]): 1%

Compound: CCCCCCCCCCCCCCCC[N+](C)(C)C [Cetrimonium]
- inhibition at 10 µM [1, 15]: 114%
- inhibition at 10 µM [2, 16]: 132%
- Quadrant (FIG. 5b) [3, 8]: Q2
- LPS % cell toxicity (primary rat microglia [4]; [17]): 12%
- Fibrin % cell toxicity (primary rat microglia [5]; [18]): 28%

Compound: CN1[C@@H](CC(=O)c2ccccc2)CCC[C@H]1C[C@H](O)c1ccccc1 [Lobeline]
- inhibition at 10 µM [1, 6]: -38%
- inhibition at 10 µM [2, 7]: -5%
- Quadrant (FIG. 5b) [3, 8]: Q4
- LPS % cell toxicity (primary rat microglia [4]; [9]): 0%
- Fibrin % cell toxicity (primary rat microglia [5]; [10]): 1%

Compound: CCCCN(CCCC)CCCOC(=O)c1ccc(N)cc1 [Butacaine]
- inhibition at 10 µM [1, 11]: -18%
- inhibition at 10 µM [2, 12]: 3%
- Quadrant (FIG. 5b) ([3]; primary HTS, 10 μM): Q4
- LPS % cell toxicity (primary rat microglia [4]; [13]): 0%
- Fibrin % cell toxicity (primary rat microglia [5]; [14]): 0%

Compound: COc1ccccc1N1CCN(CCCNc2cc(=O)n(C)c(=O)n2C)CC1 [Urapidil Hydrochloride]
- inhibition at 10 µM [1, 19]: -6%
- inhibition at 10 µM [2, 20]: 20%
- Quadrant (FIG. 5b) [3, 21]: Q4
- LPS % cell toxicity (primary rat microglia [4]; [22]): 0%
- Fibrin % cell toxicity (primary rat microglia [5]; [23]): 1%

Compound: C[N+]1(C)[C@@H]2C[C@@H](OC(=O)C(O)(c3cccs3)c3cccs3)C[C@H]1[C@@H]1O[C@@H]12 [Tiotropium]
- inhibition at 10 µM [1, 19]: -32%
- inhibition at 10 µM [2, 20]: -1%
- Quadrant (FIG. 5b) [3, 21]: Q4
- LPS % cell toxicity (primary rat microglia [4]; [22]): 0%
- Fibrin % cell toxicity (primary rat microglia [5]; [23]): 0%

Compound: Cc1onc(-c2ccccc2)c1-c1ccc(S(N)(=O)=O)cc1 [Valdecoxib]
- inhibition at 10 µM [1, 19]: -39%
- inhibition at 10 µM [2, 20]: -4%
- Quadrant (FIG. 5b) [3, 21]: Q4
- LPS % cell toxicity (primary rat microglia [4]; [22]): 0%
- Fibrin % cell toxicity (primary rat microglia [5]; [23]): 1%

Compound: O=C1c2ccccc2C(=O)C1c1ccc(Br)cc1 [Bromindione]
- inhibition at 10 µM [1, 11]: 17%
- inhibition at 10 µM [2, 12]: 27%
- Quadrant (FIG. 5b) ([3]; primary HTS, 10 μM): Q4
- LPS % cell toxicity (primary rat microglia [4]; [13]): 0%
- Fibrin % cell toxicity (primary rat microglia [5]; [14]): 1%

Compound: CN1C(C(=O)Nc2ccccn2)=C(O)c2sc(Cl)cc2S1(=O)=O [Lornoxicam]
- inhibition at 10 µM [1, 15]: 22%
- inhibition at 10 µM [2, 16]: 10%
- Quadrant (FIG. 5b) [3, 8]: Q4
- LPS % cell toxicity (primary rat microglia [4]; [17]): 1%
- Fibrin % cell toxicity (primary rat microglia [5]; [18]): 0%
